Experimental data as given in ChEMBL document CHEMBL5370531, “Design, synthesis and pharmacological evaluation of 2,3-dihydrobenzofuran IRAK4 inhibitors for the treatment of diffuse large B-cell lymphoma” (Eur J Med Chem, 2023).
pIC50: −log10 of the molar value. The source made the active and inactive calls. No cut-off for these calls is given here.

Assays:
[1] = molecular target: Vascular endothelial growth factor receptor 1 (Homo sapiens) (UniProt P17948); experiment: Inhibition of VEGFR1 (unknown origin) at 100 nM incubated for 1 hr in presence of ATP by ELISA analysis
[2] = system: OCI-Ly10; experiment: Induction of apoptosis in human OCILY10 cells assessed as late apoptotic cells at 0.1 uM incubated for 48 hrs by Annexin V-FITC/PI staining based flow cytometry (reference value: 3.54 %); type: functional
[3] = system: OCI-Ly10; experiment: Induction of apoptosis in human OCILY10 cells harboring MYD88 L265P assessed as early apoptotic cells at 0.1 uM incubated for 48 hrs in presence of BTK inhibitor, ibrutinib by Annexin V-FITC/PI staining based flow cytometry (reference value: 6.76 %); type: functional
[4] = system: OCI-Ly10; experiment: Induction of apoptosis in human OCILY10 cells assessed as late apoptotic cells at 0.2 uM incubated for 24 hrs by Annexin V-FITC/PI staining based flow cytometry (reference value: 3.71 %); type: functional
[5] = system: OCI-Ly10; experiment: Induction of apoptosis in human OCILY10 cells harboring MYD88 L265P assessed as upregulation of PARP cleavage at 0.1 uM in presence of BTK inhibitor, ibrutinib by immunoblotting analysis; type: functional, cell-based
[6] = molecular target: Tyrosine-protein kinase ABL1 (Homo sapiens) (UniProt P00519); experiment: Inhibition of ABL (unknown origin) at 100 nM incubated for 1 hr in presence of ATP by ELISA analysis
[7] = system: OCI-Ly10; experiment: Synergistic antiproliferative activity against human OCILY10 cells harboring MYD88 L265P assessed as inhibition of cell growth at 200 nM incubated for 72 hrs in presence of BTK inhibitor, ibrutinib at 12.5 nM by CCK-8 assay (reference value: 26.07 %); type: functional
[8] = system: OCI-Ly10; experiment: Synergistic antiproliferative activity against human OCILY10 cells harboring MYD88 L265P assessed as inhibition of cell growth at 400 nM incubated for 72 hrs in presence of BTK inhibitor, ibrutinib at 1.6 nM by CCK-8 assay (reference value: 34.46 %); type: functional
[9] = system: OCI-Ly10; experiment: Synergistic antiproliferative activity against human OCILY10 cells harboring MYD88 L265P assessed as inhibition of cell growth at 400 nM incubated for 72 hrs in presence of BTK inhibitor, ibrutinib at 3.1 nM by CCK-8 assay (reference value: 34.46 %); type: functional
[10] = molecular target: Platelet-derived growth factor receptor beta (Homo sapiens) (UniProt P09619); experiment: Inhibition of PDGFR-beta (unknown origin) at 100 nM incubated for 1 hr in presence of ATP by ELISA analysis
Chain of Platelet-derived growth factor receptor beta (Homo sapiens) (P09619 whole entry): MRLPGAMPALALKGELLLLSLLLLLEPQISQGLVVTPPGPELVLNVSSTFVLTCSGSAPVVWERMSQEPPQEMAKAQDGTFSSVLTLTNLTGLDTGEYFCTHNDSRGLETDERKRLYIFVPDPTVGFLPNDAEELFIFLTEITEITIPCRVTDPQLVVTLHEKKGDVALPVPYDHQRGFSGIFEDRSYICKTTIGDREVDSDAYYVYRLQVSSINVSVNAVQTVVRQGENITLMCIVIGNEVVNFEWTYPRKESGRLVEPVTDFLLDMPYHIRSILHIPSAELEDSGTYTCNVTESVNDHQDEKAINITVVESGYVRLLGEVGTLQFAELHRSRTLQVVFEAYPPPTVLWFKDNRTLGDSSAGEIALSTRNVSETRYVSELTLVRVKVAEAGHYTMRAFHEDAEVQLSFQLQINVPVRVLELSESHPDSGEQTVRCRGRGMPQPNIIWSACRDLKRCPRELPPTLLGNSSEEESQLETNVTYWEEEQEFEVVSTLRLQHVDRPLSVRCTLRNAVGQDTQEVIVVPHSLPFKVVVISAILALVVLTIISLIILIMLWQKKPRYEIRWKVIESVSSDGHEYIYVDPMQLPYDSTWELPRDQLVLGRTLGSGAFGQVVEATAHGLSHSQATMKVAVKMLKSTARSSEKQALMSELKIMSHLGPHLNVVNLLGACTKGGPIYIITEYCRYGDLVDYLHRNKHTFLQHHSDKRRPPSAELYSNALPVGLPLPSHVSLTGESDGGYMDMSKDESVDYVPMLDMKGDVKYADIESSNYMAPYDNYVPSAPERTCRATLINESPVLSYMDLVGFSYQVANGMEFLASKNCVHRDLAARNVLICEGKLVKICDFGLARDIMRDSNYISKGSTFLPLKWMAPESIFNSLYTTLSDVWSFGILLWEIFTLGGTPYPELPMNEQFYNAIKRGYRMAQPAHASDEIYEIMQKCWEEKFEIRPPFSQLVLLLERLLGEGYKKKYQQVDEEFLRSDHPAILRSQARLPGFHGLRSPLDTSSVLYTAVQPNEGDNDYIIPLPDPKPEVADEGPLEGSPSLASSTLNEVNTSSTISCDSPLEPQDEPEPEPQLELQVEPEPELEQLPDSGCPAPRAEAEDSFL

[11] = system: OCI-Ly10; experiment: Synergistic antiproliferative activity against human OCILY10 cells harboring MYD88 L265P assessed as inhibition of cell growth at 800 nM incubated for 72 hrs in presence of BTK inhibitor, ibrutinib at 12.5 nM by CCK-8 assay (reference value: 54.76 %); type: functional
[12] = system: OCI-Ly10; experiment: Synergistic antiproliferative activity against human OCILY10 cells harboring MYD88 L265P assessed as inhibition of cell growth at 800 nM incubated for 72 hrs in presence of BTK inhibitor, ibrutinib at 6.2 nM by CCK-8 assay (reference value: 54.76 %); type: functional
[13] = molecular target: Mast/stem cell growth factor receptor Kit (Homo sapiens) (UniProt P10721); experiment: Inhibition of C-kit (unknown origin) at 100 nM incubated for 1 hr in presence of ATP by ELISA analysis
[14] = system: OCI-Ly10; experiment: Induction of apoptosis in human OCILY10 cells assessed as late apoptotic cells at 0.5 uM incubated for 48 hrs by Annexin V-FITC/PI staining based flow cytometry (reference value: 3.54 %); type: functional
[15] = system: OCI-Ly10; experiment: Induction of apoptosis in human OCILY10 cells assessed as late apoptotic cells at 1 uM incubated for 24 hrs by Annexin V-FITC/PI staining based flow cytometry (reference value: 3.71 %); type: functional
[16] = system: OCI-Ly10; experiment: Induction of apoptosis in human OCILY10 cells assessed as early apoptotic cells at 1 uM incubated for 24 hrs by Annexin V-FITC/PI staining based flow cytometry (reference value: 10 %); type: functional
[17] = molecular target: Proto-oncogene tyrosine-protein kinase receptor Ret (Homo sapiens) (UniProt P07949); experiment: Inhibition of RET (unknown origin) at 100 nM incubated for 1 hr in presence of ATP by ELISA analysis relative to control
Chain of Proto-oncogene tyrosine-protein kinase receptor Ret (Homo sapiens) (P07949 whole entry): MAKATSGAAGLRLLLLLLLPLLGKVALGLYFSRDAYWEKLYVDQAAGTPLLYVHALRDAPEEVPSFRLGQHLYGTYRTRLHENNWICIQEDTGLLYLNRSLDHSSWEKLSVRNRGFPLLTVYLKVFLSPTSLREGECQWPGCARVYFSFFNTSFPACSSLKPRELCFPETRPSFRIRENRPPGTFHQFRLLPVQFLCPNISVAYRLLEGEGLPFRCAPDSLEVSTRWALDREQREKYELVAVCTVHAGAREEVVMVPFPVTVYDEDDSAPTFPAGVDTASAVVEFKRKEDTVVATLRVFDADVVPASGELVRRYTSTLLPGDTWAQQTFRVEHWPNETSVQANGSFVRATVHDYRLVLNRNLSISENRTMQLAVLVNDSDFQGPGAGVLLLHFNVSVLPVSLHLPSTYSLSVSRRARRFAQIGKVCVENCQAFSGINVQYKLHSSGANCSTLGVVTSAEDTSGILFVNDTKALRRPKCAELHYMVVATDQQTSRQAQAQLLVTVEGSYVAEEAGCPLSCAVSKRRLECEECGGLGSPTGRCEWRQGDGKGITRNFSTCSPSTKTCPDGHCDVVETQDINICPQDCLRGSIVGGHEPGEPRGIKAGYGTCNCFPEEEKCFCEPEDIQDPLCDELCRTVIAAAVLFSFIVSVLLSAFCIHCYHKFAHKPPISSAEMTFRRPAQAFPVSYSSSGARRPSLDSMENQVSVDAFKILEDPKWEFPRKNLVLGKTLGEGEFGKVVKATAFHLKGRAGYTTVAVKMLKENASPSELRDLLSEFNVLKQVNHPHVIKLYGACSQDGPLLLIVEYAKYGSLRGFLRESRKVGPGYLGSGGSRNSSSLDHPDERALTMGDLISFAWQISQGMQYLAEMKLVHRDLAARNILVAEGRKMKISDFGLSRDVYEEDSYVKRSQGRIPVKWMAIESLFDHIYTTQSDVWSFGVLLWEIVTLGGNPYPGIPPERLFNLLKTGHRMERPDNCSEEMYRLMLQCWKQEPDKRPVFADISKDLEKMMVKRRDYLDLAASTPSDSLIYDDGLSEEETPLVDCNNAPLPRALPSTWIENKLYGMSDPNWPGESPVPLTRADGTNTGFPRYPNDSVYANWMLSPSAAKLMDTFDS

[18] = system: U2932; experiment: Cytotoxicity against human U2932 cells assessed as inhibition of cell proliferation incubated for 72 hrs by CCK-8 assay; type: functional, cell-based; conditions: U2932, 72 h
[19] = molecular target: Insulin-like growth factor 1 receptor (Homo sapiens) (UniProt P08069); experiment: Inhibition of IGFR1 (unknown origin) at 100 nM incubated for 1 hr in presence of ATP by ELISA analysis
Chain of Insulin-like growth factor 1 receptor (Homo sapiens) (P08069 31-736 limits assumed): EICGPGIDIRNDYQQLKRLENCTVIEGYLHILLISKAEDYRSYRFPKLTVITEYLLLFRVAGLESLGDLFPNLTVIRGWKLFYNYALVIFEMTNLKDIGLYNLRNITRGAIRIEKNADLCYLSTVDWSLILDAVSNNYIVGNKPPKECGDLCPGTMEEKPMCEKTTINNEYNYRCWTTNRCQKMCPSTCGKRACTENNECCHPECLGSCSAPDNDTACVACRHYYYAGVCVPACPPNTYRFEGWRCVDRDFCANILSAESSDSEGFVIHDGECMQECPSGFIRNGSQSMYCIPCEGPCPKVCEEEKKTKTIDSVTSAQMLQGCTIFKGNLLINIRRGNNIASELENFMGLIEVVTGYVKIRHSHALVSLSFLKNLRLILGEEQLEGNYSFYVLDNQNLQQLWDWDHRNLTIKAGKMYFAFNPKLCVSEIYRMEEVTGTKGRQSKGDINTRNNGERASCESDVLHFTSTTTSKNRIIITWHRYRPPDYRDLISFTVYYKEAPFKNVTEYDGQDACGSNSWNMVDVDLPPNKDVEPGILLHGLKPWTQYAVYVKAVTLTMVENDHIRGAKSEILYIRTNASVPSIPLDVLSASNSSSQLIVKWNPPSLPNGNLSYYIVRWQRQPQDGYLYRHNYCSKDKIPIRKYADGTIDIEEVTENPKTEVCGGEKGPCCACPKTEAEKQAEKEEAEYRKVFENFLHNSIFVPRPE
Chain of Insulin-like growth factor 1 receptor (Homo sapiens) (P08069 741-1367 limits assumed): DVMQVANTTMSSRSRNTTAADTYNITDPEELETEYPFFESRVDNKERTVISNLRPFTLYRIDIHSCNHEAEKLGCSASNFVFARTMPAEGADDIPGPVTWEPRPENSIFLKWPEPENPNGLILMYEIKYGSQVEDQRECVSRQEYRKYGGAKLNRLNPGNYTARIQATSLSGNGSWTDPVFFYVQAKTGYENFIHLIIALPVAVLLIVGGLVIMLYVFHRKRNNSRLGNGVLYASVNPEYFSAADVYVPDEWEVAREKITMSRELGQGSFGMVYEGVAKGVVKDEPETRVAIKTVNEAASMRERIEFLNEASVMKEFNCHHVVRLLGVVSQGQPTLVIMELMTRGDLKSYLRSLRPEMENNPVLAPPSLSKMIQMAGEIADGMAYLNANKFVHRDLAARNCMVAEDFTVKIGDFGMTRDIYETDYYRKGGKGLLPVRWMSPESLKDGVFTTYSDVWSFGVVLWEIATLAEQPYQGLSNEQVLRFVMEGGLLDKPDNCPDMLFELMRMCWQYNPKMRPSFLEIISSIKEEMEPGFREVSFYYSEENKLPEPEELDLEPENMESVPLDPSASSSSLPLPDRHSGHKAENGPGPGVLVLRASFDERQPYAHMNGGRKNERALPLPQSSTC

[20] = system: OCI-Ly10; experiment: Synergistic antiproliferative activity against human OCILY10 cells harboring MYD88 L265P assessed as inhibition of cell growth at 200 nM incubated for 72 hrs in presence of BTK inhibitor, ibrutinib at 3.1 nM by CCK-8 assay (reference value: 26.07 %); type: functional
[21] = molecular target: Receptor-type tyrosine-protein kinase FLT3 (Homo sapiens) (UniProt P36888); experiment: Inhibition of FLT3 (unknown origin) at 100 nM incubated for 1 hr in presence of ATP by ELISA analysis relative to control
[22] = system: OCI-Ly10; experiment: Induction of apoptosis in human OCILY10 cells harboring MYD88 L265P assessed as upregulation of PARP cleavage at 0.2 uM in presence of BTK inhibitor, ibrutinib by immunoblotting analysis; type: functional, cell-based
[23] = molecular target: Tyrosine-protein kinase ITK/TSK (Homo sapiens) (UniProt Q08881); experiment: Inhibition of ITK (unknown origin) at 100 nM incubated for 1 hr in presence of ATP by ELISA analysis
[24] = molecular target: Fibroblast growth factor receptor 3 (Homo sapiens) (UniProt P22607); experiment: Inhibition of FGFR3 (unknown origin) at 100 nM incubated for 1 hr in presence of ATP by ELISA analysis
[25] = system: OCI-Ly10; experiment: Induction of apoptosis in human OCILY10 cells harboring MYD88 L265P assessed as late apoptotic cells at 0.2 uM incubated for 48 hrs in presence of BTK inhibitor, ibrutinib by Annexin V-FITC/PI staining based flow cytometry (reference value: 6.59 %); type: functional
[26] = molecular target: Receptor tyrosine-protein kinase erbB-4 (Homo sapiens) (UniProt Q15303); experiment: Inhibition of ERBB4 (unknown origin) at 100 nM incubated for 1 hr in presence of ATP by ELISA analysis
[27] = molecular target: Vascular endothelial growth factor receptor 2 (Homo sapiens) (UniProt P35968); experiment: Inhibition of VEGFR2 (unknown origin) at 100 nM incubated for 1 hr in presence of ATP by ELISA analysis
Chain of Vascular endothelial growth factor receptor 2 (Homo sapiens) (P35968 whole entry): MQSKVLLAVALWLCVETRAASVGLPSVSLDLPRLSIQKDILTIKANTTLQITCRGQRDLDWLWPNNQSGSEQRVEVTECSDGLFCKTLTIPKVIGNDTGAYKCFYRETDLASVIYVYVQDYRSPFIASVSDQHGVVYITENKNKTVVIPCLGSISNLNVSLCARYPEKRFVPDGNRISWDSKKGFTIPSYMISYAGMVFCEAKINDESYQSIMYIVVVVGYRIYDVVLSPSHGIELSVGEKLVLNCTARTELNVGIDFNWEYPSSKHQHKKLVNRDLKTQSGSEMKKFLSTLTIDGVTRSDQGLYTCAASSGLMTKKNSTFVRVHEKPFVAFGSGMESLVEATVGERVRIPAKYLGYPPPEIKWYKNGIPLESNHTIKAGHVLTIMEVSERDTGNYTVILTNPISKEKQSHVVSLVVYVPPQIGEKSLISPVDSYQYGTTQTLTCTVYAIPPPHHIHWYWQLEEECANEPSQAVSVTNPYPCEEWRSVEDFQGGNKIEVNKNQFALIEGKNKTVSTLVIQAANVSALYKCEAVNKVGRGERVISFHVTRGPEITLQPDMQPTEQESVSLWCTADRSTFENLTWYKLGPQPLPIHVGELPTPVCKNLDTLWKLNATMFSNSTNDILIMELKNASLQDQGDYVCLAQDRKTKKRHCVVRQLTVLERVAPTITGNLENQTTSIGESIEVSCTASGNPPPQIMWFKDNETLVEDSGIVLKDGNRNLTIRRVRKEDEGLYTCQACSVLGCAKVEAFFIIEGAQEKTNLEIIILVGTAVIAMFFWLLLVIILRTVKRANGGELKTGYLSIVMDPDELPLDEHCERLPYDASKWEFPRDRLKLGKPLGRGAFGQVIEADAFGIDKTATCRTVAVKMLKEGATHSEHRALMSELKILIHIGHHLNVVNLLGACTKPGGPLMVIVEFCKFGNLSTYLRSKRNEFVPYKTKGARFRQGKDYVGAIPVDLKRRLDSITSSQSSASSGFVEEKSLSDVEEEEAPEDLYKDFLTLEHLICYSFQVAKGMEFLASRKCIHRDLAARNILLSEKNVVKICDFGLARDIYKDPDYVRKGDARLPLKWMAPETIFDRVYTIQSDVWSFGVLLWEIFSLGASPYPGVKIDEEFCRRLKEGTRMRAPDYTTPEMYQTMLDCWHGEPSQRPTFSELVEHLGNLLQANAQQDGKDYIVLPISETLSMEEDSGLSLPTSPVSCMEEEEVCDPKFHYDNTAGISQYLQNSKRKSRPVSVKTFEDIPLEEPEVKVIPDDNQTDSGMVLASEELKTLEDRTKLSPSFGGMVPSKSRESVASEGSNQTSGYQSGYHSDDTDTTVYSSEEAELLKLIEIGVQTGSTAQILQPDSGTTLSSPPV

[28] = system: OCI-Ly10; experiment: Cytotoxicity against human OCILY10 cells assessed as inhibition of cell proliferation incubated for 72 hrs by CCK-8 assay; type: functional, cell-based; conditions: OCI-Ly10, 72 h
[29] = system: OCI-Ly10; experiment: Induction of apoptosis in human OCILY10 cells assessed as upregulation of caspase-3 cleavage at 0.1 to 1 uM incubated for 48 hrs by immunoblotting analysis; type: functional, cell-based; conditions: dose 0.1-1 µM

`Cn1cc(-c2cc3c(cc2NC(=O)c2coc(-c4ccnc(N)c4)n2)CC(C)(C)O3)cn1` was tested, and the inhibition [1] was “inactive”, the Activity [2] was 7.93% and the Activity [3] was 14.2%. For the same compound, the Activity [4] was 11.8%, the Activity [5] was “Active” and the inhibition [6] was “inactive”. It also gave an inhibition at 0.2 µM [7] of 67.5%, an inhibition at 0.4 µM [8] of 37.4% and an inhibition at 0.4 µM [9] of 42.3%. The inhibition [10] was “inactive”, the inhibition at 0.8 µM [11] was 86.4% and the inhibition at 0.8 µM [12] was 83.3%. The inhibition [13] was “inactive”, the Activity [14] was 26.8% and the Activity [15] was 33.7%. For the same compound, the Activity [16] was 36.4%, the inhibition [17] was over 50% and the pIC50 [18] was 5.90. The inhibition [19] was “inactive”, the inhibition at 0.2 µM [20] was 29.5% and the inhibition [21] was over 50%. The Activity [22] was “Active”, the inhibition [23] was “inactive” and the inhibition [24] was “inactive”. The Activity [25] was 33.2%, the inhibition [26] was “inactive” and the inhibition [27] was “inactive”. The pIC50 [28] was 6.61 and the Activity [29] was “Active”.
